Drawing on patent US20060189602A1, “Pyridazinone compounds” (Anadys Pharmaceuticals, Inc., priority 2004, published 2006), this text covers IC50 for eight molecules.

The target of the experiment is HCV NS5B polymerase (Hepatitis C virus genotype 1b, UniProt P26663). As to the kind of experiment: NS5B Polymerase Inhibition Assay. The note with it: 50 nM enzyme, [α-33P]GTP, oligo (rG13)/poly rC, 75 min at 28° C. In kind it is biochemical. As for the experimental part: NS5B Polymerase Inhibition Assay
Chain of HCV NS5B polymerase (P26663 2420-3010): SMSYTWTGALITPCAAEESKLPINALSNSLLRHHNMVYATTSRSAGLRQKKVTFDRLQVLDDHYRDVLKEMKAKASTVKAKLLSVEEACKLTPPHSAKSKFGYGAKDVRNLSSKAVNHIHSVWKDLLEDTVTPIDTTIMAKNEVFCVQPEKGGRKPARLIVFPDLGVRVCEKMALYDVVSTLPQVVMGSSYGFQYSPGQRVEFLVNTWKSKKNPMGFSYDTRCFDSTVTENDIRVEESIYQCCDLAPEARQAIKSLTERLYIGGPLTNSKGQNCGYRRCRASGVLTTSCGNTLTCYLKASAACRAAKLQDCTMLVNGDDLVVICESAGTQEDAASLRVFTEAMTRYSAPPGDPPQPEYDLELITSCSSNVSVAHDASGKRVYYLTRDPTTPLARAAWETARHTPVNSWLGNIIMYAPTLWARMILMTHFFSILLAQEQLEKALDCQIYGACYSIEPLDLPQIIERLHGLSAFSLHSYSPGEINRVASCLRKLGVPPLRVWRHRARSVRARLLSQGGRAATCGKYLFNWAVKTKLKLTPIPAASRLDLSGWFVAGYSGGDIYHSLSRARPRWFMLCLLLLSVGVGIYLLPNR
Compounds were tested for HCV polymerase inhibition. Assays were performed in a 96-well streptavidin-coated FlashPlate using 50 nM enzyme, 0.5 μCi of [α-^33P]GTP, 0.63 μM GTP, and 250 nM 5′biotinylated oligo (rG13)/poly rC in 20 mM Tris-HCl, pH 7.5, 5 mM MgCl2, 20 mM NaCl, 5 mM dithiothreitol, and 0.1 g/L BSA. The reaction was stopped by aspiration after 75 min at 28° C. and the plate was washed several times. After washing, incorporated radioactivity was counted using a Microbeta scintillation counter.
Consider `CC(C)CCn1nc(C(C)C)c(O)c(C2=Nc3ccccc3S(=O)(=O)N2)c1=O` [Compound 27, 4-(1,1-Dioxo-1,2-dihydro-1λ^6-benzo[1,2,4]thiadiazin-3-yl)-5-hy-droxy-6-isopropyl-2-(3-methyl-butyl)-2H-pyridazin-3-one], for which the IC50 (as a rule, the concentration that gives 50% inhibition) fell in the range of 10 to 50 µM.

Turning to `CCCCn1nc(-c2ccccc2)c(O)c(C2=Nc3ccc(OC)cc3S(=O)(=O)N2)c1=O` [Compound 15, 2-Butyl-5-hydroxy-4-(7-methoxy-1,1-dioxo-1,2-dihydro-1λ^6-ben-zo[1,2,4]thiadiazin-3-yl)-6-phenyl-2H-pyridazin-3-one], the IC50 lay in the range of 10 to 50 µM. For the molecule `CCCCc1nn(CCC(C)C)c(=O)c(C2=Nc3ccc(OC)cc3S(=O)(=O)N2)c1O` [Compound 35, 6-Butyl-5-hydroxy-4-(7-methoxy-1,1-dioxo-1,2-dihdyro-1λ^6-ben-zo[1,2,4]thiadiazin-3-yl)-2-(3-methyl-butyl)-2H-pyridazin-3-one], the half-maximal inhibitory concentration (IC50) was < 10 µM.

For the molecule `CCCCn1nc(-c2cccs2)c(O)c(C2=Nc3ccc(OC)cc3S(=O)(=O)N2)c1=O` [Compound 17, 2-Butyl-5-hydroxy-4-(7-methoxy-1,1-dioxo-1,2-dihydro-1λ^6-ben-zo[1,2,4]thiadiazin-3-yl)-6-thiophen-2-yl-2H-pyridazin-3-one], the IC50 was < 10 µM.

With `CCCCn1nc(C(C)C)c(O)c(C2=Nc3ccc(OCC(N)=O)cc3S(=O)(=O)N2)c1=O` [Compound 12, 2-[3-(2-Butyl-5-hydroxy-6-isopropyl-3-oxo-2,3-dihydro-py-ridazin-4-yl)-1,1-dioxo-1,2-dihdyro-1λ^6-ben-zo[1,2,4]thiadiazin-7-yloxy]-actamide], the concentration for half-maximal inhibition (IC50) was < 10 µM. The figure for `O=c1c(C2=Nc3ccc(O)cc3S(=O)(=O)N2)c(O)c(-c2cccs2)nn1Cc1c(F)cccc1Cl` [Compound 19, 2-(2-Chloro-6-fluoro-benzyl)-5-hydroxy-4-(7-hydroxy-1,1-di-oxo-1,2-dihydro-1λ^6-benzo[1,2,4]thiadiazin-3-yl)-6-thio-phen-2-yl-2H-pyridazin-3-one] is 10 to 50 µM.

As to `CC(C)CCn1nc(C(C)C)c(O)c(C2=Nc3ccc(OCC(N)=O)cc3S(=O)(=O)N2)c1=O` [Compound 33, 2-{3-[5-Hydroxy-6-isopropyl-2-(3-methyl-butyl)-3-oxo-2,3-di-hydro-pyridazin-4-yl]-1,1-dioxo-1,2-dihydro-1λ^6-ben-zo[1,2,4]thiadiazin-7-yloxy}-acetamide], the IC50 is < 10 µM. Under `CCCCc1nn(CCCC)c(=O)c(C2=Nc3ccc(OC)cc3S(=O)(=O)N2)c1O` [Compound 40, 2,6-Dibutyl-5-hydroxy-4-(7-methoxy-1,1-dioxo-1,2-dihydro-1λ^6-ben-zo[1,2,4]thiadiazin-3-yl)-2H-pyridazin-3-one] stands 10 to 50 µM.
